Active and inactive are the calls of the source. For most assays here, no stated cut-off is given here; in the data, actives have a measured EC50 and inactives only a lower limit. Peptide text beside a SMILES is read from it. * marks the point of attachment. Cbz = O=C(OCc1ccccc1)*
Tests used:
[1] = molecular target: Cytochrome P450 2C9 (Homo sapiens, UniProt P11712)
[2] = molecular target: T1, Streptokinase A (Streptococcus pyogenes serotype M1, UniProt P10520); assay: S. pyogenes streptokinase expression inhibitors, potency, dose response, plasminogen activation absorbance, OD405 (AID 1914); assay type: functional, Streptococcus pyogenes M1 GAS;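 further: secreted streptokinase activity via plasminogen activation per viability signal from cell pellet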
T1 sequence (P10520 whole entry): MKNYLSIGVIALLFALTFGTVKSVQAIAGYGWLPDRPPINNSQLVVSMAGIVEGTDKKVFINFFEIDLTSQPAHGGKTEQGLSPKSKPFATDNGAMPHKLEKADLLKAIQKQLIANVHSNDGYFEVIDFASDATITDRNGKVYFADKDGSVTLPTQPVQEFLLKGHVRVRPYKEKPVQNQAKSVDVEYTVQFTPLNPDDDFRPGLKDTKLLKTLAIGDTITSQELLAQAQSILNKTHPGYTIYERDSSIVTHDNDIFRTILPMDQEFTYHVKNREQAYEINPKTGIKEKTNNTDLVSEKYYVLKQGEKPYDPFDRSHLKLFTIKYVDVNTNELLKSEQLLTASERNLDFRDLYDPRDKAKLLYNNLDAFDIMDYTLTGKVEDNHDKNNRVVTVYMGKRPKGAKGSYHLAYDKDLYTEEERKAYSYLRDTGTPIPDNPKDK

[3] = molecular target: Cytochrome P450 3A4 (Homo sapiens, UniProt P08684);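 further: CYP3A4 tested as one member of a cytochrome P450 panel screen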
[4] = cytotoxicity toward NIH3T3 fibroblasts, dose response, counter-screen, cell-based, ATP luminescence, mouse fibroblasts (AID 2010); assay type: functional;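 further: cells exposed to compound for about 90 hours before reading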
[5] = inhibitors of intracellular T. cruzi replication, confirmation, NIH3T3 host cells, beta-gal luminescence (AID 2044); assay type: functional, cell-based;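 further: intracellular parasites grown in NIH/3T3 mouse fibroblasts as host cells; luminescent beta-galactosidase reporter signal from transgenic T. cruzi replicating inside host cells; inhibitors lower the luminescence signal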
[6] = system: Streptococcus sp. 'group A'; assay: growth inhibition of control SK(-) GAS strain, dose response, counter-screen for streptokinase expression inhibitor project, luminescence, kanamycin, BacTiterGlo, confirmation (AID 1900); assay type: functional, organism-based
[7] = system: Streptococcus; assay: Group A Streptococcus viability loss, dose response, counter-screen for streptokinase expression inhibitor project, luminescence, BacTiterGlo (AID 1915); assay type: functional, organism-based;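 further: potency for reduction of bacterial viability or growth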
[8] = molecular target: T2, Corticotropin-releasing factor receptor 2/Corticotropin-releasing factor-binding protein (Homo sapiens, UniProt P24387+Q13324); assay: activators of CRF receptor 2 with binding protein – uHTS hits, confirmation (AID 602473); assay type: functional; conditions: read-out: EC50_Mean
T2 sequence (Q13324 whole entry): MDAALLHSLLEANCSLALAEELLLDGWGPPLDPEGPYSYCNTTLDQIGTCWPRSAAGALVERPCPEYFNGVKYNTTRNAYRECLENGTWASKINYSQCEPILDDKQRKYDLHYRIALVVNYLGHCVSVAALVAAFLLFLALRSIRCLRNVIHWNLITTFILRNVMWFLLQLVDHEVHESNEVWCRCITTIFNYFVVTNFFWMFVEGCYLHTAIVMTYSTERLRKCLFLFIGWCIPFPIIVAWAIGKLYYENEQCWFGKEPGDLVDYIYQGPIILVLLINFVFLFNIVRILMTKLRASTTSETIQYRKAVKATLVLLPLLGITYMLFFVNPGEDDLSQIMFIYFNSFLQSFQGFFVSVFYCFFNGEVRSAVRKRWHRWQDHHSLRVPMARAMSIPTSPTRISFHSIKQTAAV
T2 sequence (P24387 whole entry): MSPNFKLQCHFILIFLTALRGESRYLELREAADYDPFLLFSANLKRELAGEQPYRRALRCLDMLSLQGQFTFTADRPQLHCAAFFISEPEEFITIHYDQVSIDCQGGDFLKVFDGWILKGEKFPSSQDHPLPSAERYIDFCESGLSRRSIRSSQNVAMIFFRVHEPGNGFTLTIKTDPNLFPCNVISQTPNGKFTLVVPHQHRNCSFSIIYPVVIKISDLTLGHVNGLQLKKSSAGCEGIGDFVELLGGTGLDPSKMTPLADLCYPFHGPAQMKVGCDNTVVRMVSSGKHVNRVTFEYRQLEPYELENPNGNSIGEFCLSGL

[9] = molecular target: T2, Corticotropin-releasing factor receptor 2/Corticotropin-releasing factor-binding protein; assay: Dose Response confirmation of uHTS hits for small molecule antagonists of the CRF-binding protein and CRF-R2 receptor complex.; assay type: functional; conditions: read-out: IC50_Mean
[10] = molecular target: Paired box protein Pax-8 (Homo sapiens, UniProt Q06710); assay: inhibitors of PAX8-driven TPO luciferase reporter, dose response, RMG-I cells, cherry-pick (AID 687027); assay type: functional, cell-based;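 further: luciferase reporter driven by Pax8 target thyroperoxidase promoter measured by SteadyGlo luminescence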
Paired box protein Pax-8, sequence (Q06710 whole entry): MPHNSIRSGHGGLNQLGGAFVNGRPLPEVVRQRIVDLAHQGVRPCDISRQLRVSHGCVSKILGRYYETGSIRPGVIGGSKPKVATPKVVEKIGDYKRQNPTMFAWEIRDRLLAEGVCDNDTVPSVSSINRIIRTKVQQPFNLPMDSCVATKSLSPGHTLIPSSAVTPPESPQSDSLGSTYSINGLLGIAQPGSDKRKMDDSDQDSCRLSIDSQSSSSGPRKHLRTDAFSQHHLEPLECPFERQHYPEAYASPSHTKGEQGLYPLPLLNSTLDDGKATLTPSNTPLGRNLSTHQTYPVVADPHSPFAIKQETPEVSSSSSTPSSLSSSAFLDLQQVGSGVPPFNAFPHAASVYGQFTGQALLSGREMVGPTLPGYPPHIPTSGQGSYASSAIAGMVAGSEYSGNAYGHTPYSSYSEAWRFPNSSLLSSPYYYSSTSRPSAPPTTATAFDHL

Cytochrome P450 2C9, sequence (P11712 whole entry): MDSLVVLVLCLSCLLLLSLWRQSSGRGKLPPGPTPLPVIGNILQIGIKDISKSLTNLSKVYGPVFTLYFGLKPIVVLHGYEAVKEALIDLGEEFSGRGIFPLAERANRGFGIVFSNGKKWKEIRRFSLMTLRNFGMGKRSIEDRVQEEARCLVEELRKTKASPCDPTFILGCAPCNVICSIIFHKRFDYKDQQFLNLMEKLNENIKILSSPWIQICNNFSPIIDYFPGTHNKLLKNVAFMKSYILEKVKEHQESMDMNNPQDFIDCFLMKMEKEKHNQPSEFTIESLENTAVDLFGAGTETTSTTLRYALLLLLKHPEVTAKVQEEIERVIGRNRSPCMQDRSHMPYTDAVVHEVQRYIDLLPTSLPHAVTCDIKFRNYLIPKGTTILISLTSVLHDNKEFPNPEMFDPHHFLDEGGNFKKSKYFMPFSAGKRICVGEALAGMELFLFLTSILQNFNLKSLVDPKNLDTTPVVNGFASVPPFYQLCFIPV
Cytochrome P450 3A4, sequence (P08684 whole entry): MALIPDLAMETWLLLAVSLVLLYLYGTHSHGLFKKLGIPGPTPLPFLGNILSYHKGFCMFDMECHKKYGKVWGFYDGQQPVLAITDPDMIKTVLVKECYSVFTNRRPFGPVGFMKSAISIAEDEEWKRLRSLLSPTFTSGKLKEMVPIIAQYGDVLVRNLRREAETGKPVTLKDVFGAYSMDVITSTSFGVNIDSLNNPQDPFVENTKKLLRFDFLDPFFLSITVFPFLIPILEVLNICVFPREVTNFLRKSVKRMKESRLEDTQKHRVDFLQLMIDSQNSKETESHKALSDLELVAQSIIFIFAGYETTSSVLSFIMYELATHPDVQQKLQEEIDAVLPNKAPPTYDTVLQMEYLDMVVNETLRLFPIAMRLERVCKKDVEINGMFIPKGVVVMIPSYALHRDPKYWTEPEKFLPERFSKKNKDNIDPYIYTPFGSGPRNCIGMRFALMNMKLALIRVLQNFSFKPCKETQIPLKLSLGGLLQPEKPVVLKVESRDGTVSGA

Compound	EC50 [4]	EC50 [5]	other results
N=C(N)SCc1cccc(-c2nc3ccccc3c(=O)o2)c1	–	–	AC50 [1]: 5.01 µM (inconclusive)
O=c1[nH]c2ccc(Cl)cc2c(-c2ccccc2)c1N1CCN(c2ccccn2)CC1	–	–	EC50 [2]: 3.83 µM (active)
O=C(CCNS(=O)(=O)c1cccs1)N1CCc2ccccc2C1	–	–	AC50 [3]: 14.1 µM (inconclusive)
Cn1nc([N+](=O)[O-])nc1Oc1ccccc1C(=O)N1CCOCC1	> 60 µM (not active)	0.117 µM (active)	–
Cc1noc(C)c1CSc1nc2sc(C)c(C)c2c(=O)n1-c1ccccc1	> 60 µM (not active)	1.02 µM (active)	–
COc1c(CC=C(C)C)cc(C2CC(=O)c3c(O)cc(O)cc3O2)c(CC=C(C)C)c1O (configuration not stated)	–	–	EC50 [6]: 3.02 µM (active); EC50 [7]: 2.9 µM (active)
Cc1nnsc1C(=O)NC1CCCc2c1cnn2-c1ccc(C(C)(C)C)cc1 (configuration not stated)	> 60 µM (not active)	1.98 µM (active)	–
Cc1nnc2n(Cc3ccccc3)c(=O)c3c4c(sc3n12)COC(C)(C)C4	–	–	EC50 [8]: > 53 µM (inactive); IC50 [9]: > 47.1 µM (inactive)
CCCNCCC(c1ccco1)c1ccccc1OC (configuration not stated)	–	–	EC50 [8]: > 53 µM (inactive); IC50 [9]: > 47.1 µM (inactive)
COc1ccc(C(=O)OCC(=O)N(C)C2CCS(=O)(=O)C2)cc1S(=O)(=O)N(C)Cc1ccccc1 (configuration not stated)	–	–	EC50 [8]: > 53 µM (inactive); IC50 [9]: > 47.1 µM (inactive)
COc1cc(CNCc2ccncc2)cc(Br)c1OCc1ccccc1F	> 30 µM (not active)	2.83 µM (active)	–
Cc1ccc(NC(=O)CN(c2ccc(Cl)cc2)S(=O)(=O)c2cc([N+](=O)[O-])ccc2Cl)c(C)c1	> 60 µM (inconclusive)	2.42 µM (active)	–
O=C(c1cnn2c(C(F)(F)F)cc(-c3cccs3)nc12)N1CCN(Cc2ccccc2)CC1	> 60 µM (not active)	0.721 µM (active)	–
COc1ccc(N2CCN(C3CCCCC3NS(=O)(=O)c3ccc(Cl)cc3)CC2)cc1 (configuration not stated)	–	–	EC50 [8]: 4.33 µM (active)
O=c1c(-c2cccc(Cl)c2)nc2cncnc2n1C1CC1	–	–	AC50 [3]: 15.8 µM (inconclusive)
Cc1cc(C)n(-c2nc(SCCN(C)C)c3c4c(sc3n2)COC(C)(C)C4)n1	> 30 µM (not active)	0.836 µM (active)	–
O=C(CSc1nnc(CNc2ccc(F)cc2)o1)OC1CCCCC1	–	–	AC50 [1]: 17.8 µM (inconclusive)
O=C1CC(NS(=O)(=O)c2ccc([N+](=O)[O-])cc2)CN1c1ccc(Cl)cc1 (configuration not stated)	> 60 µM (not active)	0.477 µM (active)	–
CCOC(=O)C1=C(CCc2ccccc2)NC(=O)NC1c1cccc([N+](=O)[O-])c1 (configuration not stated)	–	–	EC50 [8]: > 53 µM (inactive); IC50 [9]: > 47.1 µM (inactive)
C=CCc1cccc(/C=N/NC(=O)C(C)Nc2cccc(C)c2)c1O (configuration not stated)	> 30 µM (not active)	1.84 µM (active)	–
C[C@@H]1CN([C@@H](C)CO)C(=O)c2cc(NC(=O)Nc3ccc(C(F)(F)F)cc3)ccc2O[C@@H](C)CCCCO[C@@H]1CN(C)Cc1ccncc1	–	–	AC50 [10]: 9.03 µM (active)
Cc1[nH]cnc1C(=O)N/N=C/c1ccc([N+](=O)[O-])s1	> 60 µM (not active)	0.449 µM (active)	EC50 [6]: 2.91 µM (active); EC50 [7]: 5.18 µM (active)
CCn1/c(=N\C(=O)CS(=O)(=O)c2ccc(C)cc2)sc2cccc(OC)c21	8.46 µM (active)	1.2 µM (active)	–
O=C(N/N=C/c1ccc(-c2cccc(C(F)(F)F)c2)o1)c1cccc(F)c1	> 60 µM (not active)	1.15 µM (active)	–
Clc1ccc2c(N/N=C/c3cccnc3)ccnc2c1	> 60 µM (not active)	0.931 µM (active)	–
CC(C)[C@H](NC(=O)OCc1ccccc1)C(=O)N[C@H](C=O)Cc1ccccc1 (Cbz-Val-Phe-aldehyde)	–	–	AC50 [1]: 39.8 µM (inconclusive)
C[C@@H](C(=O)O)c1ccc(C(=O)c2cccs2)cc1 [(R)-SUPROFEN]	–	–	AC50 [1]: 12.6 µM (inconclusive)
